Measurements published in paper PMC10124120 (European journal of medicinal chemistry, 2023).

How the values were obtained:
SLC26A4 = biological target: T1, SLC26A4 (Homo sapiens, UniProt O43511); assay: YFP-based selectivity assay, SLC26A4; assay type: cell-based; settings: for inhibition at 10 µM: read-out: % Inhibition SLC26A4
T1 sequence (O43511 1-780): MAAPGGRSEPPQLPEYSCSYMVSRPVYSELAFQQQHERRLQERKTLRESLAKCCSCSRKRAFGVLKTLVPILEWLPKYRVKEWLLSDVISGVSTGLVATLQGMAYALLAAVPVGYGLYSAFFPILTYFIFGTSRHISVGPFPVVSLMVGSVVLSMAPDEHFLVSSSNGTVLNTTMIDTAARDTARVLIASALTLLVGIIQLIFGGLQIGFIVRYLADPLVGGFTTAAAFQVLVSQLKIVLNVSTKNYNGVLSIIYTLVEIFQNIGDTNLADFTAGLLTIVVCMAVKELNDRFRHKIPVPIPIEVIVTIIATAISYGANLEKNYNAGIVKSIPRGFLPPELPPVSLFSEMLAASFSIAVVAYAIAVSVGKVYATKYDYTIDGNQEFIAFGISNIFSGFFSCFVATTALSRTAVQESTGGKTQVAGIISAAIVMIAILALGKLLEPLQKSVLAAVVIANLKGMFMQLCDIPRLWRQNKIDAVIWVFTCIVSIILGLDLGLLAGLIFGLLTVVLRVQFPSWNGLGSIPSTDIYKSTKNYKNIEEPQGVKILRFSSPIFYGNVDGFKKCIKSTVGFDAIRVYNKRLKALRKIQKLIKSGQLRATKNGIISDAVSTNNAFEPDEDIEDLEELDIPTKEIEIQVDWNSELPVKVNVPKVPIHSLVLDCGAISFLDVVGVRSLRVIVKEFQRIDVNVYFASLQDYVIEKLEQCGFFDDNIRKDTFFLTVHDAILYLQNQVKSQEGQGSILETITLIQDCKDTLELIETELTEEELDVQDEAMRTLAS

TMEM16A = assay: YFP-based selectivity assay, TMEM16A; assay type: cell-based; settings: 10 μM, mean ± S.E.M., n = 6–8
SLC26A3 = biological target: T2, SLC26A3 (Mus musculus, UniProt Q9WVC8); assay: Kinetic studies of inhibitor action; assay type: cell-based, murine; settings: from kinetics of inhibition onset and washout
T2 sequence (Q9WVC8 1-757): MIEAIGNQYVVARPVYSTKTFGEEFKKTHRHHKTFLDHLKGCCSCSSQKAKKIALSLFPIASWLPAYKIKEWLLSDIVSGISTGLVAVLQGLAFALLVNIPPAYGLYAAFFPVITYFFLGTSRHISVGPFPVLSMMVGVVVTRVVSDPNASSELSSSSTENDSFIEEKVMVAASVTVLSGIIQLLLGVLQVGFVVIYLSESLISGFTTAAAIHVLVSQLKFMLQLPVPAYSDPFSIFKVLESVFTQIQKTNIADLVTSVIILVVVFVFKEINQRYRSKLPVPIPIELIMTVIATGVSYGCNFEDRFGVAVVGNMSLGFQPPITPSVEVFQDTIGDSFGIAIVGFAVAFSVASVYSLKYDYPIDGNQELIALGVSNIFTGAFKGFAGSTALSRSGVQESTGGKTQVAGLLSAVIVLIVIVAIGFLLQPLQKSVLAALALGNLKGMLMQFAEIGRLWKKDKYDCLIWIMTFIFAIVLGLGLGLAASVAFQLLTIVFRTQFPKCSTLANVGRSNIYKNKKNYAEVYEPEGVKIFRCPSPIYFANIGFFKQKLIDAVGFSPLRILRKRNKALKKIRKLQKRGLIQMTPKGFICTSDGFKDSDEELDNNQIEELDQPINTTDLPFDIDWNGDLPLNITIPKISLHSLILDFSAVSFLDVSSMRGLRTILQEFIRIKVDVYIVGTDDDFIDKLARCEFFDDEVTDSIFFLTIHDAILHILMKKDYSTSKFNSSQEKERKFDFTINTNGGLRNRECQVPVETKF

[1] = test system: loperamide-induced constipation; assay: Loperamide-induced model of constipation in mice; assay type: in vivo, CD1 mice
[2] = test system: loperamide-induced constipation; settings: mouse model of constipation produced by loperamide; cited from earlier work
[3] = test system: hyperoxaluria and oxalate nephropathy; settings: mice orally loaded with oxalate; cited from earlier work
[4] = test system: absorption of fluid and oxalate from the loop lumen; settings: closed colonic loops in mice; cited from earlier work
[5] = loperamide-treated mice (0.3 mg/kg ip), 10 mg/kg oral gavage, vs vehicle
[6] = loperamide 0.3 mg/kg intraperitoneal

**Q.** With `O=C(Nc1ccccc1C(=O)O)c1ccc2c(c1)C(=O)N(c1ccc(Cl)cc1)C2=O` [Compound 1a] as the compound, how does the inhibition at 10 µM (SLC26A4) read?
**A.** Its inhibition at 10 µM is -14 ± 19%.

**Q.** Which “% Inhibition TMEM16A” value (TMEM16A) does the source give for `Cc1cc(C)cc(N(C)S(=O)(=O)c2nnc(NC(=O)COc3ccc(C)c(C)c3)s2)c1` [Compound 2a] here?
**A.** The value was over 80%.

**Q.** With `O=c1cc(COc2ccccc2Cl)nc2scc(-c3ccccc3)n12` [Compound 3a, 7-(2-chloro-phenoxymethyl)-3-phenyl-thiazolo [3,2-a]pyrimidin-5-one] as the compound, how does the inhibition at 10 µM (SLC26A4) read?
**A.** The inhibition at 10 µM was -13 ± 23%.

**Q.** What about the site of action (SLC26A3) of the same compound?
**A.** The site of action was “Extracellular”.

**Q.** And the number of pellets [1, 5]?
**A.** Its number of pellets is “significantly increased”.

**Q.** And the stool weight [1, 5]?
**A.** The stool weight was “significantly increased”.

**Q.** For `Cc1ccccc1COc1ccc2oc(-c3ccccc3)c(C(=O)O)c2c1` [Compound 4a], which inhibition at 10 µM (SLC26A4) is on record?
**A.** The inhibition at 10 µM was -13 ± 21%.

**Q.** What about the site of action (SLC26A3) of the same compound?
**A.** Its site of action is “Extracellular”.

**Q.** For `COC(=O)c1c(C)oc2ccc(OC(=O)COCc3ccccc3)cc12` [Compound 4h], which “activity against SLC26A4 (in words)” value (SLC26A4) is on record?
**A.** The value was “active”.

**Q.** Which site of action (SLC26A3) does the source give for `Cc1c(CC(=O)O)c(=O)oc2c(C)c(OCc3cccc(I)c3)ccc12` [DRAinh-A270, [7-(3-iodobenzyloxy)-4,8-dimethylcoumarin]-3-acetic acid] here?
**A.** The site of action was “intracellular”.

**Q.** And the “improving stool output and hydration” value [2]?
**A.** Its value is “effective”.

**Q.** What about the “preventing hyperoxaluria and oxalate nephropathy” value [3] of the same compound?
**A.** The value was “effective”.

**Q.** What about the “absorption of fluid and oxalate from the loop lumen” value [4] of the same compound?
**A.** The value was “inhibited”.

**Q.** Which “reduced pellet number compared to control mice” value [1, 6] does the source give for `CN(C)C(=O)C(CCN1CCC(O)(c2ccc(Cl)cc2)CC1)(c1ccccc1)c1ccccc1` [Loperamide, loperamide, reference compound] here?
**A.** Its value is over 90%.

**Q.** What about the “reduced stool weight compared to control mice” value [1, 6] of the same compound?
**A.** Its value is over 90%.
